We go through 25 compounds from ChEMBL document CHEMBL1130973, “Synthesis and biological evaluation of 3-arylisoquinolines as antitumor agents” (Bioorg Med Chem Lett, 1998).

“And” between values parts separate entries of the source, which are not always exact repeats. Equal entries are not always repeated.

Assay [1] has as its system SK-MEL-2. Put plainly: Tested for inhibitory activity against SK-MEL-2 (human melanoma) tumor cell line. Format: functional, cell-based.
The subject of assay [2] is HCT-15. Briefly: Tested for in vitro cytotoxicity against HCT 15 (human colon) tumor cell line using sulforhodamine B (SRB) assay; not active (> 100 uM). Format: functional, cell-based. On the technique in general: Sulforhodamine B stains cellular protein and so reports cell mass.
Assay [3] has as its system SK-MEL-2. Put plainly: Tested for in vitro cytotoxicity against SK-MEL-2 (human melanoma) tumor cell line using sulforhodamine B (SRB) assay; not active (> 100 uM). It counts as functional, cell-based.
The subject of assay [4] is A549. Briefly: Tested for in vitro cytotoxicity against A 549 (human lung) tumor cell line using sulforhodamine B (SRB) assay; not active (> 100 uM). It counts as functional, cell-based.
Assay [5] has as its system HCT-15 (Homo sapiens). Briefly: Tested for in vitro cytotoxicity against HCT 15 (human colon) tumor cell line using sulforhodamine B (SRB) assay; not active (> 100 uM).
Assay [6] concerns SK-OV-3. Briefly: Tested for in vitro cytotoxicity against SKOV-3 (human ovarian) tumor cell line using sulforhodamine B (SRB) assay; not active (> 100 uM). Format: functional, cell-based.
For assay [7], the system named is HCT-15 (Homo sapiens). Briefly: In vitro cytotoxicity against HCT 15 (human colon) tumor cell line.
Assay [8] has as its system SK-OV-3. Put plainly: In vitro cytotoxicity against SKOV-3 (human ovarian) tumor cell line. Format: functional, cell-based.
Assay [9] concerns A549. Put plainly: Tested for in vitro cytotoxicity against A 549 (human lung) tumor cell line using sulforhodamine B (SRB) assay. It counts as functional, cell-based.
The test system of another assay is XF498 (Homo sapiens). Put plainly: In vitro cytotoxicity against XF498 (human CNS) tumor cell line.
Assay [10] has as its system SK-MEL-2. Put plainly: In vitro cytotoxicity against SK-MEL-2 (human melanoma) tumor cell line. Format: functional, cell-based.
Assay [11] deals with XF498. Put plainly: Tested for in vitro cytotoxicity against XF498 (human CNS) tumor cell line using sulforhodamine B (SRB) assay. It counts as functional, cell-based.
Assay [12] has as its system HCT-15. Briefly: Tested for in vitro cytotoxicity against HCT 15 (human colon) tumor cell line using sulforhodamine B (SRB) assay. Format: functional, cell-based.
The subject of assay [13] is SK-MEL-2. Put plainly: Tested for in vitro cytotoxicity against SK-MEL-2 (human melanoma) tumor cell line using sulforhodamine B (SRB) assay. Format: functional, cell-based.
Assay [14] relates to SK-OV-3. Put plainly: Tested for in vitro cytotoxicity against SKOV-3 (human ovarian) tumor cell line using sulforhodamine B (SRB) assay. It counts as functional, cell-based.
The subject of assay [15] is XF498. Briefly: In vitro cytotoxicity against XF498 (human CNS) tumor cell line. It counts as functional, cell-based.
Assay [16] concerns HCT-15. Put plainly: In vitro cytotoxicity against HCT 15 (human colon) tumor cell line. Format: functional, cell-based.
A further assay relates to Mus musculus. Put plainly: In vivo anti tumor activity towards P388 leukemia in BDFl mouse expressed as T/C. Format: functional.

One may read the IC50 as the point on the concentration scale where inhibition reaches its midpoint. The compound `C=Cc1cc2c(cc1-c1cc3ccc(OC)c(OC)c3c(=O)n1C)OCO2` showed a concentration for half-maximal inhibition (IC50) in the assay on SK-MEL-2 [1] of 0.0002 µM.

For the compound `CN(C)c1cccc2c(O)nc(-c3ccc(Br)cc3)cc12`, the concentration for half-maximal inhibition (IC50) entry in the assay with HCT-15 [2], in the assay on SK-MEL-2 [3], with A549 [4], with HCT-15 (Homo sapiens) [5] and in the assay on SK-OV-3 [6] was “Not Active” in each case.

For the compound `Cc1ccc2c(O)nc(-c3ccccc3C)cc2c1`, the half-maximal inhibitory concentration (IC50) amounted to 1.99 µM with HCT-15 (Homo sapiens) [7]; 4.27 µM in the assay on SK-OV-3 [8] (Homo sapiens, SK-OV-3); 5.89 µM in the assay on A549 [9] (Homo sapiens, A549); 30.9 µM in the assay on XF498 (Homo sapiens); 2.63 µM in the assay with SK-MEL-2 [10] (Homo sapiens, SK-MEL-2).

As for `COc1ccc(-c2cc3c(N(C)C)cccc3c(N3CCN(C)CC3)n2)cc1`, the half-maximal inhibitory concentration (IC50) with HCT-15 (Homo sapiens) [7] amounted to 10.7 µM; with SK-OV-3 [8] (Homo sapiens, SK-OV-3) it was 13.2 µM; in the assay with A549 [9] (Homo sapiens, A549) it was 1.82 µM; with XF498 (Homo sapiens) it was 6.17 µM; in the assay with SK-MEL-2 [10] (Homo sapiens, SK-MEL-2), 3.98 µM.

Take `CN(C)c1cccc2c(O)nc(-c3ccccc3)cc12`: the half-inhibitory concentration (IC50) result in the assay on HCT-15 [2], in the assay with SK-MEL-2 [3], with A549 [4], with HCT-15 (Homo sapiens) [5] and in the assay with SK-OV-3 [6] was “Not Active” each time.

`CN1CCN(c2nc(-c3ccc(Cl)cc3)cc3c(N(C)C)cccc23)CC1`: the half-maximal inhibitory concentration (IC50) in the assay with HCT-15 (Homo sapiens) [7] stood at 7.3 µM; in the assay with SK-OV-3 [8] (Homo sapiens, SK-OV-3), 7.56 µM; with A549 [9] (Homo sapiens, A549), 7.45 µM; in the assay on XF498 (Homo sapiens), 7.98 µM; in the assay with SK-MEL-2 [10] (Homo sapiens, SK-MEL-2), 4.3 µM.

With `CN1CCN(c2nc(-c3ccccc3)cc3c(N(C)C)cccc23)CC1`, the IC50 in the assay on HCT-15 (Homo sapiens) [7] turned out to be 9.55 µM; in the assay with SK-OV-3 [8] (Homo sapiens, SK-OV-3), 11.2 µM; in the assay with A549 [9] (Homo sapiens, A549), 10 µM; in the assay with XF498 (Homo sapiens), 19.9 µM; in the assay on SK-MEL-2 [10] (Homo sapiens, SK-MEL-2), 7.08 µM.

Turning to `Oc1nc(-c2ccccc2)cc2ccccc12`, the IC50 was 1.38 µM in the assay with HCT-15 (Homo sapiens) [7]; 2.45 µM in the assay with SK-OV-3 [8] (Homo sapiens, SK-OV-3); 5.75 µM with A549 [9] (Homo sapiens, A549); 5.89 µM with XF498 (Homo sapiens); 2.57 µM in the assay with SK-MEL-2 [10] (Homo sapiens, SK-MEL-2).

`COc1ccc(-c2cc3ccccc3c(S)n2)cc1`: the 50% inhibitory concentration (IC50) entry is “Not Active” in the assay on SK-MEL-2 [3]; “Not Active” with A549 [4]; 83.2 µM with XF498 (Homo sapiens); “Not Active” in the assay on HCT-15 (Homo sapiens) [5]; “Not Active” with SK-OV-3 [6].

For the compound `Cc1ccc(-c2cc3cc(C)ccc3c(O)n2)cc1`, the IC50 in the assay on HCT-15 (Homo sapiens) [7] was determined as 11.2 µM; in the assay with SK-OV-3 [8] (Homo sapiens, SK-OV-3) it was 4.9 µM; with A549 [9] (Homo sapiens, A549), 5.62 µM; in the assay on XF498 (Homo sapiens), 35.5 µM; in the assay with SK-MEL-2 [10] (Homo sapiens, SK-MEL-2) it was 7.76 µM.

Take `COc1ccc(-c2cc3c(N(C)C)cccc3c(O)n2)cc1`: the IC50 result in the assay on HCT-15 [2], in the assay on SK-MEL-2 [3], in the assay on A549 [4], in the assay on HCT-15 (Homo sapiens) [5] and with SK-OV-3 [6] was “Not Active” throughout.

As to `Cc1ccc2c(O)nc(-c3ccc(Cl)cc3)cc2c1`, the concentration for half-maximal inhibition (IC50) in the assay with XF498 [11] was found to be 11.2 µM; in the assay on A549 [9], 5.75 µM; with HCT-15 [12], 11.2 µM; in the assay with SK-MEL-2 [13], 6.31 µM; with SK-OV-3 [14], 6.03 µM.

On to `Cc1ccc(-c2cc3c(N(C)C)cccc3c(O)n2)cc1`, for which the IC50 entry in the assay with HCT-15 [2], with SK-MEL-2 [3], in the assay on A549 [4], with HCT-15 (Homo sapiens) [5] and in the assay on SK-OV-3 [6] was “Not Active” each time.

`Cc1ccc2c(O)nc(-c3ccccc3)cc2c1`: the half-maximal inhibitory concentration (IC50) worked out at 0.76 µM in the assay on HCT-15 (Homo sapiens) [7]; 1.7 µM in the assay with SK-OV-3 [8] (Homo sapiens, SK-OV-3); 1.32 µM with A549 [9] (Homo sapiens, A549); 5.13 µM in the assay with XF498 (Homo sapiens); 1.58 µM with SK-MEL-2 [10] (Homo sapiens, SK-MEL-2).

On to `Cc1ccc(-c2cc3cc(C)ccc3c(N3CCN(C)CC3)n2)cc1`, for which the IC50 with HCT-15 (Homo sapiens) [7] was 4.47 µM; with SK-OV-3 [8] (Homo sapiens, SK-OV-3), 7.08 µM; in the assay with A549 [9] (Homo sapiens, A549), 7.24 µM; in the assay on XF498 (Homo sapiens), 8.32 µM; with SK-MEL-2 [10] (Homo sapiens, SK-MEL-2), 2.4 µM.

Take `Cc1ccc2c(S)nc(-c3ccccc3)cc2c1`: the IC50 was 9.12 µM and 75.9 µM in the assay on XF498 [15]; 34.7 µM in the assay on SK-OV-3 [8] (Homo sapiens, SK-OV-3); 56.2 µM with SK-OV-3 [8] (sk-ov-3); 8.51 µM in the assay on A549 [9] (Homo sapiens, A549); 11 µM with A549 [9] (a549); 19.1 µM and 41.9 µM in the assay with HCT-15 [16]. The 50% inhibitory concentration (IC50) in the assay with SK-MEL-2 [10] (Homo sapiens, SK-MEL-2) is 19.5 µM; in the assay on SK-MEL-2 [10] (sk-mel-2), 25.1 µM.

For the compound `Oc1nc(-c2ccc3c(c2)OCO3)cc2ccccc12`, the 50% inhibitory concentration (IC50) result in the assay with A549 [4] is “Not Active”; in the assay with HCT-15 (Homo sapiens) [7] it was 2.69 µM; in the assay on SK-OV-3 [8] (Homo sapiens, SK-OV-3), 77.6 µM; in the assay on XF498 (Homo sapiens) it was 17.8 µM; with SK-MEL-2 [10] (Homo sapiens, SK-MEL-2) it was 25.1 µM.

In the case of `COc1ccc(-c2cc3cc(C)ccc3c(N3CCN(C)CC3)n2)cc1`, the IC50 turned out to be 7.41 µM with HCT-15 (Homo sapiens) [7]; 7.94 µM in the assay on SK-OV-3 [8] (Homo sapiens, SK-OV-3); 7.41 µM in the assay with A549 [9] (Homo sapiens, A549); 9.33 µM in the assay on XF498 (Homo sapiens); 3.71 µM with SK-MEL-2 [10] (Homo sapiens, SK-MEL-2).

For orientation: T/C means the ratio of treated to control. Take `CN1CCN(c2nc(-c3ccccc3)cc3ccccc23)CC1`: the IC50 in the assay on HCT-15 (Homo sapiens) [7] turned out to be 18.6 µM; in the assay with SK-OV-3 [8] (Homo sapiens, SK-OV-3), 22.4 µM; in the assay with A549 [9] (Homo sapiens, A549), 25.1 µM; with XF498 (Homo sapiens) it was 37.1 µM; with SK-MEL-2 [10] (Homo sapiens, SK-MEL-2), 11.8 µM. This compound showed a T/C in the assay on Mus musculus of 160%.

For the compound `Cc1ccc(-c2cc3ccccc3c(O)n2)cc1`, the half-inhibitory concentration (IC50) in the assay on HCT-15 (Homo sapiens) [7] came out at 7.08 µM; in the assay with SK-OV-3 [8] (Homo sapiens, SK-OV-3) it was 13.8 µM; with A549 [9] (Homo sapiens, A549), 30.2 µM; with XF498 (Homo sapiens), 42.7 µM; with SK-MEL-2 [10] (Homo sapiens, SK-MEL-2), 5.01 µM.

On to `Cc1ccc2c(N3CCN(C)CC3)nc(-c3ccc(Cl)cc3)cc2c1`, for which the half-inhibitory concentration (IC50) in the assay on HCT-15 (Homo sapiens) [7] came to 4.07 µM; in the assay on SK-OV-3 [8] (Homo sapiens, SK-OV-3) it was 5.75 µM; in the assay with A549 [9] (Homo sapiens, A549), 3.19 µM; in the assay on XF498 (Homo sapiens) it was 6.03 µM; in the assay with SK-MEL-2 [10] (Homo sapiens, SK-MEL-2), 2.4 µM.

`Oc1nc(-c2ccc(C(F)(F)F)cc2)cc2ccccc12`: the half-maximal inhibitory concentration (IC50) result with HCT-15 [2] is “Not Active”; in the assay with SK-MEL-2 [3], “Not Active”; with A549 [4], “Not Active”; in the assay on SK-OV-3 [8] (Homo sapiens, SK-OV-3), 87.3 µM; in the assay with HCT-15 (Homo sapiens) [5], “Not Active”.

Turning to `Sc1nc(-c2ccccc2)cc2ccccc12`, the half-maximal inhibitory concentration (IC50) result in the assay with HCT-15 [2], in the assay on SK-MEL-2 [3], in the assay with A549 [4], with HCT-15 (Homo sapiens) [5] and in the assay on SK-OV-3 [6] was “Not Active” throughout.

Consider `Cc1ccc2c(N3CCN(C)CC3)nc(-c3ccccc3C)cc2c1`, for which the IC50 with HCT-15 (Homo sapiens) [7] was found to be 6.61 µM; in the assay with SK-OV-3 [8] (Homo sapiens, SK-OV-3), 5.13 µM; in the assay on A549 [9] (Homo sapiens, A549), 7.59 µM; in the assay on XF498 (Homo sapiens) it was 77.6 µM; in the assay with SK-MEL-2 [10] (Homo sapiens, SK-MEL-2) it was 3.38 µM.

For `COc1ccc2c(c[n+](C)c3c4cc5c(cc4ccc23)OCO5)c1O` [FAGARIDINE], the half-inhibitory concentration (IC50) in the assay on HCT-15 (Homo sapiens) [7] was found to be 1.12 µM; with SK-OV-3 [8] (Homo sapiens, SK-OV-3), 1.35 µM; in the assay on A549 [9] (Homo sapiens, A549), 1.02 µM; with XF498 (Homo sapiens), 1.12 µM; with SK-MEL-2 [10] (Homo sapiens, SK-MEL-2) it was 2.75 µM.
